One experiment deals with MDA-MB-231 cells. Put plainly: Cell proliferation assay (CellTiter-Glo), MDA-MB-231. Particulars: Homo sapiens, MDA-MB-231, 72 h, 72 h treatment, Celltiter-Glo luminescence. The class given is cell-based. In short, it runs like this:
(§1)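 Compounds tested over ten concentrations ([…]) for 72 h on EVSA-T cells in MEM/10% FBS and MDA-MB-231 cells in RPMI-1640/10% FBS, seeded at 10000/well. Luminescent CellTiter-Glo readout; IC50 fitted after normalisation to controls.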

The test system of another experiment is EVSA-T cells. Put plainly: Cell proliferation assay (CellTiter-Glo), EVSA-T. It counts as cell-based. Particulars: Homo sapiens, EVSA-T, 72 h, 72 h treatment, Celltiter-Glo luminescence. In short, it runs like this: as §1
Background: Cellular ATP, detected with luciferase, serves as a proxy for viable cell number.

As a reminder, the IC50 is the concentration that gives 50% inhibition.

Take `C[C@@H]1CN(CC(=O)N2CC(C)(C)c3c2cc(Cc2ccc(F)cc2)c2nn(C4CCC4O)c(=O)n32)[C@@H](CN2CCOC[C@H]2C)CN1` (stereo partly drawn) [Compound 273A, 4-(4-fluorobenzyl)-2-(2-hydroxycyclobutyl)-8,8-dimethyl-6-(2-((2R,5R)-5-methyl-2-(((R)-3-methylmorpholino)methyl)piperazin-1-yl)acetyl)-2,6,7,8-tetrahydro-1H-pyrrolo[2,3-e][1,2,4]triazolo[4,3-a]pyridin-1-one]: the IC50 with MDA-MB-231 cells was determined as 23 nM; in the experiment with EVSA-T cells, 1.24 nM.

`C[C@@H]1CN(CC(=O)N2CC(C)(C)c3c2cc(Cc2ccc(F)cc2)c2ncc(Cl)n32)[C@@H](CN2CCOC[C@H]2C)CN1` [Compound 118, 1-(1-chloro-4-(4-fluorobenzyl)-8,8-dimethyl-7,8-dihydro-6H-imidazo[1,2-a]pyrrolo[2,3-e]pyridin-6-yl)-2-((2R,5R)-5-methyl-2-(((R)-3-methylmorpholino)methyl)piperazin-1-yl)ethan-1-one]: the values for the IC50 in the experiment on MDA-MB-231 cells and in the experiment with EVSA-T cells were 120 nM and 10 nM, respectively.

The values are drawn from patent US20250179073A1, “TRICYCLIC HETEROCYCLE COMPOUNDS AS IAP ANTAGONISTS” (Ascentage Pharma (Suzhou) Co., Ltd., priority 2022, published 2025).
